Experimental data reported in the NIST ThermoML archive (doi:10.1016/j.jct.2012.03.025).
Numbers after ± are expanded uncertainties.

Assay: mn = molality of the nth substance listed, in mol/kg
Details: 101 kPa, Liquid; for speed of sound: Sing-around technique in a fixed-path interferometer; for mass density: Vibrating tube method

CCCCn1cc[n+](C)c1.[Br-] [1-butyl-3-methylimidazolium bromide] + O
Details | mass density, 288.15 K [kg/m3] | mass density, 293.15 K [kg/m3] | mass density, 298.15 K [kg/m3] | mass density, 303.15 K [kg/m3] | mass density, 308.15 K [kg/m3] | speed of sound, 288.15 K [m/s] | speed of sound, 293.15 K [m/s] | speed of sound, 298.15 K [m/s] | speed of sound, 303.15 K [m/s] | speed of sound, 308.15 K [m/s]
m1 = 0.0513 | 1001.7 ± 0.065 | 1000.78 ± 0.064 | 999.601 ± 0.064 | 998.177 ± 0.064 | 996.522 ± 0.064 | 1472.8 ± 0.77 | 1488.1 ± 0.77 | 1501.8 ± 0.77 | 1513.7 ± 0.78 | 1524 ± 0.78
m1 = 0.1034 | 1004.29 ± 0.066 | 1003.33 ± 0.065 | 1002.13 ± 0.065 | 1000.67 ± 0.064 | 998.994 ± 0.064 | 1478.8 ± 0.77 | 1493.6 ± 0.78 | 1506.8 ± 0.78 | 1518.3 ± 0.78 | 1528.2 ± 0.79
m1 = 0.1531 | 1006.73 ± 0.067 | 1005.72 ± 0.066 | 1004.51 ± 0.066 | 1003.02 ± 0.066 | 1001.34 ± 0.065 | 1484.5 ± 0.78 | 1498.7 ± 0.78 | 1511.5 ± 0.78 | 1522.5 ± 0.79 | 1532 ± 0.79
m1 = 0.2012 | 1009.09 ± 0.069 | 1008.05 ± 0.068 | 1006.79 ± 0.067 | 1005.29 ± 0.067 | 1003.58 ± 0.066 | 1489.6 ± 0.78 | 1503.7 ± 0.79 | 1516 ± 0.79 | 1526.6 ± 0.79 | 1535.7 ± 0.8
m1 = 0.2499 | 1011.45 ± 0.07 | 1010.37 ± 0.069 | 1009.06 ± 0.068 | 1007.54 ± 0.068 | 1005.82 ± 0.067 | 1494.9 ± 0.79 | 1508.5 ± 0.79 | 1520.4 ± 0.8 | 1530.7 ± 0.8 | 1539.3 ± 0.8
m1 = 0.2995 | 1013.81 ± 0.071 | 1012.7 ± 0.07 | 1011.38 ± 0.07 | 1009.81 ± 0.069 | 1008.07 ± 0.069 | 1500.4 ± 0.8 | 1513.5 ± 0.8 | 1524.9 ± 0.8 | 1534.6 ± 0.8 | 1543 ± 0.81
m1 = 0.35 | 1016.21 ± 0.073 | 1015.02 ± 0.072 | 1013.64 ± 0.071 | 1012.1 ± 0.07 | 1010.34 ± 0.07 | 1505.5 ± 0.8 | 1518.3 ± 0.8 | 1529.3 ± 0.81 | 1538.7 ± 0.81 | 1546.7 ± 0.81
m1 = 0.4008 | 1018.58 ± 0.074 | 1017.37 ± 0.073 | 1015.96 ± 0.073 | 1014.35 ± 0.072 | 1012.6 ± 0.072 | 1510.9 ± 0.81 | 1523 ± 0.81 | 1533.6 ± 0.81 | 1542.6 ± 0.82 | 1550.2 ± 0.82
m1 = 0.4565 | 1021.19 ± 0.077 | 1019.89 ± 0.075 | 1018.45 ± 0.075 | 1016.8 ± 0.074 | 1015.05 ± 0.073 | 1516.4 ± 0.81 | 1528.1 ± 0.82 | 1538.2 ± 0.82 | 1546.8 ± 0.82 | 1554 ± 0.82
m1 = 0.5012 | 1023.28 ± 0.079 | 1021.91 ± 0.077 | 1020.5 ± 0.076 | 1018.75 ± 0.076 | 1017.01 ± 0.075 | 1520.9 ± 0.82 | 1532.2 ± 0.82 | 1542 ± 0.82 | 1550.2 ± 0.83 | 1557.1 ± 0.83

CCCCn1cc[n+](C)c1.F[B-](F)(F)F [1-butyl-3-methylimidazolium tetrafluoroborate] + O
Details | mass density, 288.15 K [kg/m3] | mass density, 293.15 K [kg/m3] | mass density, 298.15 K [kg/m3] | mass density, 303.15 K [kg/m3] | mass density, 308.15 K [kg/m3] | speed of sound, 288.15 K [m/s] | speed of sound, 293.15 K [m/s] | speed of sound, 298.15 K [m/s] | speed of sound, 303.15 K [m/s] | speed of sound, 308.15 K [m/s]
m1 = 0.0514 | 1001.13 ± 0.057 | 1000.19 ± 0.057 | 998.93 ± 0.056 | 997.535 ± 0.057 | 995.822 ± 0.057 | 1471.9 ± 0.77 | 1487.3 ± 0.78 | 1500.9 ± 0.78 | 1512.8 ± 0.78 | 1523 ± 0.78
m1 = 0.1056 | 1003.19 ± 0.06 | 1002.21 ± 0.059 | 1000.85 ± 0.058 | 999.439 ± 0.058 | 997.645 ± 0.058 | 1476.9 ± 0.78 | 1492 ± 0.79 | 1505 ± 0.79 | 1516.2 ± 0.79 | 1526 ± 0.8
m1 = 0.1559 | 1005.1 ± 0.063 | 1004.06 ± 0.062 | 1002.6 ± 0.061 | 1001.17 ± 0.061 | 999.334 ± 0.06 | 1481.5 ± 0.79 | 1495.9 ± 0.8 | 1508.5 ± 0.8 | 1519.5 ± 0.8 | 1528.8 ± 0.81
m1 = 0.201 | 1006.76 ± 0.066 | 1005.67 ± 0.065 | 1004.18 ± 0.064 | 1002.7 ± 0.064 | 1000.82 ± 0.063 | 1485.3 ± 0.81 | 1499.3 ± 0.81 | 1511.3 ± 0.81 | 1522.1 ± 0.81 | 1531.1 ± 0.82
m1 = 0.2573 | 1008.83 ± 0.07 | 1007.69 ± 0.07 | 1006.13 ± 0.069 | 1004.58 ± 0.068 | 1002.65 ± 0.067 | 1490 ± 0.82 | 1503.4 ± 0.82 | 1515 ± 0.83 | 1525.2 ± 0.83 | 1533.7 ± 0.83
m1 = 0.3001 | 1010.36 ± 0.073 | 1009.21 ± 0.073 | 1007.59 ± 0.072 | 1005.98 ± 0.071 | 1004.05 ± 0.07 | 1493.2 ± 0.83 | 1506.2 ± 0.84 | 1517.5 ± 0.84 | 1527.3 ± 0.84 | 1535.6 ± 0.84
m1 = 0.3504 | 1012.17 ± 0.078 | 1010.97 ± 0.077 | 1009.26 ± 0.076 | 1007.63 ± 0.075 | 1005.66 ± 0.075 | 1496.9 ± 0.85 | 1509.5 ± 0.85 | 1520.4 ± 0.85 | 1529.8 ± 0.85 | 1537.7 ± 0.86
m1 = 0.4093 | 1014.26 ± 0.083 | 1012.98 ± 0.083 | 1011.22 ± 0.082 | 1009.47 ± 0.081 | 1007.54 ± 0.08 | 1501.1 ± 0.86 | 1513.2 ± 0.87 | 1523.6 ± 0.87 | 1532.6 ± 0.87 | 1540.1 ± 0.87
m1 = 0.4506 | 1015.7 ± 0.088 | 1014.4 ± 0.087 | 1012.58 ± 0.086 | 1010.78 ± 0.085 | 1008.78 ± 0.084 | 1504 ± 0.87 | 1515.6 ± 0.88 | 1525.8 ± 0.88 | 1534.5 ± 0.88 | 1541.7 ± 0.88
m1 = 0.508 | 1017.7 ± 0.094 | 1016.36 ± 0.092 | 1014.5 ± 0.092 | 1012.56 ± 0.091 | 1010.59 ± 0.09 | 1507.4 ± 0.89 | 1519 ± 0.89 | 1528.5 ± 0.9 | 1536.8 ± 0.9 | 1543.7 ± 0.9

CCCCn1cc[n+](C)c1.[Cl-] [1-butyl-3-methylimidazolium chloride] + O
Details | mass density, 288.15 K [kg/m3] | mass density, 293.15 K [kg/m3] | mass density, 298.15 K [kg/m3] | mass density, 303.15 K [kg/m3] | mass density, 308.15 K [kg/m3] | speed of sound, 288.15 K [m/s] | speed of sound, 293.15 K [m/s] | speed of sound, 298.15 K [m/s] | speed of sound, 303.15 K [m/s] | speed of sound, 308.15 K [m/s]
m1 = 0.0519 | 999.802 ± 0.045 | 998.874 ± 0.045 | 997.684 ± 0.046 | 996.264 ± 0.047 | 994.611 ± 0.048 | 1474.6 ± 0.78 | 1489.9 ± 0.78 | 1503.6 ± 0.78 | 1515.5 ± 0.79 | 1525.8 ± 0.79
m1 = 0.1011 | 1000.45 ± 0.049 | 999.477 ± 0.049 | 998.265 ± 0.05 | 996.836 ± 0.051 | 995.146 ± 0.051 | 1482 ± 0.79 | 1496.7 ± 0.8 | 1509.9 ± 0.8 | 1521.4 ± 0.8 | 1531.3 ± 0.8
m1 = 0.1548 | 1001.14 ± 0.054 | 1000.16 ± 0.054 | 998.918 ± 0.055 | 997.452 ± 0.055 | 995.754 ± 0.056 | 1489.8 ± 0.81 | 1504 ± 0.81 | 1516.6 ± 0.82 | 1527.7 ± 0.82 | 1537.2 ± 0.82
m1 = 0.2011 | 1001.77 ± 0.06 | 1000.76 ± 0.059 | 999.494 ± 0.059 | 998.007 ± 0.06 | 996.292 ± 0.061 | 1496.5 ± 0.83 | 1510.1 ± 0.83 | 1522.3 ± 0.83 | 1533 ± 0.84 | 1542.3 ± 0.84
m1 = 0.2583 | 1002.56 ± 0.066 | 1001.52 ± 0.066 | 1000.2 ± 0.066 | 998.699 ± 0.066 | 996.957 ± 0.067 | 1504.3 ± 0.85 | 1517.8 ± 0.85 | 1529.2 ± 0.86 | 1539.7 ± 0.86 | 1548.4 ± 0.86
m1 = 0.311 | 1003.25 ± 0.073 | 1002.18 ± 0.073 | 1000.86 ± 0.073 | 999.317 ± 0.073 | 997.577 ± 0.073 | 1511.4 ± 0.87 | 1524.5 ± 0.88 | 1535.6 ± 0.88 | 1545.6 ± 0.88 | 1553.9 ± 0.88
m1 = 0.3619 | 1003.98 ± 0.081 | 1002.88 ± 0.08 | 1001.53 ± 0.08 | 999.989 ± 0.079 | 998.169 ± 0.08 | 1518.1 ± 0.89 | 1531 ± 0.9 | 1541.4 ± 0.9 | 1551.3 ± 0.9 | 1559.3 ± 0.9
m1 = 0.4064 | 1004.59 ± 0.087 | 1003.46 ± 0.087 | 1002.09 ± 0.086 | 1000.54 ± 0.086 | 998.737 ± 0.086 | 1524 ± 0.91 | 1536.4 ± 0.92 | 1546.8 ± 0.92 | 1556.2 ± 0.92 | 1563.9 ± 0.92
m1 = 0.451 | 1005.23 ± 0.094 | 1004.07 ± 0.094 | 1002.67 ± 0.093 | 1001.08 ± 0.093 | 999.294 ± 0.092 | 1530 ± 0.94 | 1542.1 ± 0.94 | 1551.6 ± 0.94 | 1561 ± 0.94 | 1568.4 ± 0.94
m1 = 0.5069 | 1005.99 ± 0.1 | 1004.8 ± 0.1 | 1003.4 ± 0.1 | 1001.79 ± 0.1 | 999.991 ± 0.1 | 1536.9 ± 0.96 | 1549 ± 0.96 | 1557.9 ± 0.97 | 1567.1 ± 0.97 | 1574 ± 0.97
